Source: patent publication US10781456B2, “Carbon-neutral and carbon-positive photorespiration bypass routes supporting higher photosynthetic rate and yield” (Max-Planck-Gesellschaft zur Förderung der Wissenschaften …, priority 2015, dated 2020)

Legend:
[1] = molecular target: T1, malonyl-CoA reductase from Chloroflexus aurantiacus (MCRCa), SEQ ID NO: 8 (Chloroflexus aurantiacus, UniProt Q6QQP7); assay: MCRCa activity for conversion of tartronyl-CoA into glycerate (reactions 4# and 5), NADPH oxidation; format: biochemical; settings: FIG. 8D and Table 5; 37° C., pH 7.5, 0.4 mM NADPH; n=3
T1 sequence (Q6QQP7 1-1220): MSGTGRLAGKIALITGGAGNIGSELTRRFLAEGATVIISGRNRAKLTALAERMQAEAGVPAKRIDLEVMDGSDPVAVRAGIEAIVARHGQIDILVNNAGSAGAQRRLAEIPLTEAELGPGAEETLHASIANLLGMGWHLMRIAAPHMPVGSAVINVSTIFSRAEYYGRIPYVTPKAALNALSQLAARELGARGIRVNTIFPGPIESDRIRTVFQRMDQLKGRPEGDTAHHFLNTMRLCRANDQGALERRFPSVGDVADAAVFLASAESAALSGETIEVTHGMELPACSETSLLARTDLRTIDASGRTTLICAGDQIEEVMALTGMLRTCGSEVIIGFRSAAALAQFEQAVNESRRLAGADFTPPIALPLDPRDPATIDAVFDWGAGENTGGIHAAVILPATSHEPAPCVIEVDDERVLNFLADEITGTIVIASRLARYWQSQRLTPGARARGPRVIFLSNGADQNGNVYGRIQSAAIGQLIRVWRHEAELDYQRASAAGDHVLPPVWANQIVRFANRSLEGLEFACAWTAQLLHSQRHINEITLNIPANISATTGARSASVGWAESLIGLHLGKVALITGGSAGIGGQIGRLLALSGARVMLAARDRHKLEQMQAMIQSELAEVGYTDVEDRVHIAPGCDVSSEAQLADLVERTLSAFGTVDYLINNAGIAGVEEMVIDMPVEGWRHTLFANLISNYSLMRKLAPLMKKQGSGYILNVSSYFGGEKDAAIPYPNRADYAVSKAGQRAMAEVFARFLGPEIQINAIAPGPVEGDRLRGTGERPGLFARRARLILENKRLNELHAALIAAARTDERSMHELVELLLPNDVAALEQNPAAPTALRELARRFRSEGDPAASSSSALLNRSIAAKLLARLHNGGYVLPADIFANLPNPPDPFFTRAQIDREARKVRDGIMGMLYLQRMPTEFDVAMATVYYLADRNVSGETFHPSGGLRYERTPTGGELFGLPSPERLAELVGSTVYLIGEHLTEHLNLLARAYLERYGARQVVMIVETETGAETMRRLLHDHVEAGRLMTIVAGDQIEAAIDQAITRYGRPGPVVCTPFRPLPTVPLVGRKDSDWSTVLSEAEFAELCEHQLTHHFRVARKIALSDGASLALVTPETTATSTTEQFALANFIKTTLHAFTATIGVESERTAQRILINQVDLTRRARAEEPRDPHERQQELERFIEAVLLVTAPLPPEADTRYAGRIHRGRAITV
Experimental: For the heterologous expression of the MCRCa protein (amino acid sequence is shown in SEQ ID NO: 8; corresponding nucleic acid sequence encoding the protein is depicted in SEQ ID NO: 7) the previously described pTRC-MCRCa plasmid (Kröger et al., 2011, Analytical biochemistry, 411(1), 100-105) was employed.
Cells were harvested at 10 000×g for 10 min and cell pellets were stored at −80° C. until purification of enzymes. Cell pellets of MCRCa and MCRE overexpressing cells were resuspended in two-fold volume of buffer AStrep (50 mM Tris/HCl, 150 mM NaCl, pH 7.8) containing 0.1 mg mL^−1 DNAse I. The cell suspension was passed through a French pressure cell twice at a pressure of 137 MPa and centrifuged at 100 000×g and 4° C. for 1 h. The supernatant was filtered through a 0.45 μm syringe filter and loaded at a flow rate of 1 mL min^−1 onto a 1 mL StrepTrap™ HP column (GE healthcare) which had previously been equilibrated with 5 column volumes of buffer AStrep. The column was washed with 20 column volumes of buffer AStrep and the protein was eluted with buffer AStrep containing 3 mM desthiobiotin. […]
The kinetics of the MCRCa enzyme for enzymatically converting the substrate tartonyl-CoA into glycerate (via reactions 4# and 5 both catalyzed by MCRCa) were determined spectrophotometrically at 365 nm following the oxidation of NADPH. […]

[2] = test system: malonyl-CoA reductase from Erythrobacter sp. NAP1 (MCRE), SEQ ID NO: 10; assay: MCRE activity for conversion of tartronyl-CoA into glycerate (reactions 4# and 5), NADPH oxidation; format: biochemical; settings: 37° C., assay as for MCRCa; n=2
[3] = molecular target: T2, propionyl-CoA carboxylase from Methylobacterium extorquens (PCCMe) variant PCCMe_D407I_Y143H (pccA SEQ ID NO: 2; pccB_D407I_Y143H SEQ ID NO: 6) (Methylorubrum extorquens, UniProt C5AP75+C5AWU5, D407I/Y143H); assay: PCCMe_D407I_Y143H activity for conversion of glycolyl-CoA into tartronyl-CoA (reaction 3#), coupled ATP hydrolysis (PK/LDH) assay; format: biochemical; settings: 37° C., pH 7.7, ATP hydrolysis assay, 0.125-3 mM glycolyl-CoA; n=2
T2 sequence (C5AP75 1-510 Y143H/D407I): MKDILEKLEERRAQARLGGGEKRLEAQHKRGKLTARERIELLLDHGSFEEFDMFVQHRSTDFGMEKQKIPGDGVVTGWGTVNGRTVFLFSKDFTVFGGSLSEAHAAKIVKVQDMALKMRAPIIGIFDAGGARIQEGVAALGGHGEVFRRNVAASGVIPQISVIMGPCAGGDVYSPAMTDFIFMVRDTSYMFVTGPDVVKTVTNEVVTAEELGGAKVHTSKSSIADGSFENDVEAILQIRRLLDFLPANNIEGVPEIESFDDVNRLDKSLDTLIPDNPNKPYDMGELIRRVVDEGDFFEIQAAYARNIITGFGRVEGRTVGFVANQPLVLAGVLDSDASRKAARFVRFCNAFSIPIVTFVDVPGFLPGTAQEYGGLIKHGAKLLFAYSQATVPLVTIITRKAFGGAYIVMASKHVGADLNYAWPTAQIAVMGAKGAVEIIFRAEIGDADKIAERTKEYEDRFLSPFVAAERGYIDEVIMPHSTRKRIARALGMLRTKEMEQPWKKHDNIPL
T2 sequence (C5AWU5 1-667): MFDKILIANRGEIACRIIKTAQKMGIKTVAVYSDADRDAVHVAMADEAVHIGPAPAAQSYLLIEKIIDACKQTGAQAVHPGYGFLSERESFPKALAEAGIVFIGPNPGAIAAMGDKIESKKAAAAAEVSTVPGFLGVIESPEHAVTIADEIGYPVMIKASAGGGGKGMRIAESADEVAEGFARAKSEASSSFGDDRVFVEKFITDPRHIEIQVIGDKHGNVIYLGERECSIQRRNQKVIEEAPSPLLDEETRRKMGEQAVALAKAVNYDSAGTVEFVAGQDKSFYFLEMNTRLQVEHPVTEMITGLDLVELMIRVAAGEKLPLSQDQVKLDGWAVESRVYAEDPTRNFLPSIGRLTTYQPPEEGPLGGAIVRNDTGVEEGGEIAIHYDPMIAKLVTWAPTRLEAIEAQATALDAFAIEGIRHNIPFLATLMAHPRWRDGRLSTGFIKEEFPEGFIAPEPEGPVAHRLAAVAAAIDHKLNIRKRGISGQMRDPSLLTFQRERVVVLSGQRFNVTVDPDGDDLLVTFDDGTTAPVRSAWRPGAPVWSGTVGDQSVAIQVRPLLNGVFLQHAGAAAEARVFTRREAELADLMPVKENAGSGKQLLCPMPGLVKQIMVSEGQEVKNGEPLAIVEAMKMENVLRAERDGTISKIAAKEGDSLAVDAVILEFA

[4] = molecular target: T3, propionyl-CoA transferase from Ralstonia eutropha (PCTRe), wild type, SEQ ID NO: 12 (Cupriavidus necator, UniProt Q0K874); settings: 37° C., pH 7.5, 2 mM acetyl-CoA, 10-800 mM glycolate; n=3
T3 sequence (Q0K874 1-542): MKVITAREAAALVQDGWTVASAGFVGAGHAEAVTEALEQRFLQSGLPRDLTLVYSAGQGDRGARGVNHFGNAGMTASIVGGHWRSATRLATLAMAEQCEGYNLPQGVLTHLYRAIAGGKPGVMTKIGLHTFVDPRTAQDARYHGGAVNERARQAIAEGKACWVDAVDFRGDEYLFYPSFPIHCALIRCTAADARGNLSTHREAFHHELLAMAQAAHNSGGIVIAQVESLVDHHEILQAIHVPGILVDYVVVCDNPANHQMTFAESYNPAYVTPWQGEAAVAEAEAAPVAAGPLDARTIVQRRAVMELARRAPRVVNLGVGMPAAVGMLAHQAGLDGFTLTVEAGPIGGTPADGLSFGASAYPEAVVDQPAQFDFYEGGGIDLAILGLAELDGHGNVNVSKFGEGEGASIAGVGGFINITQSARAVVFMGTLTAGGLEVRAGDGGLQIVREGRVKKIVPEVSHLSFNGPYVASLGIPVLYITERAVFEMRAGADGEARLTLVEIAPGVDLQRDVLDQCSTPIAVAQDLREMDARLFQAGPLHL

With `CC(C)(COP(=O)(O)OP(=O)(O)OC[C@H]1O[C@@H](n2cnc3c(N)ncnc32)[C@H](O)[C@@H]1OP(=O)(O)O)[C@@H](O)C(=O)NCCC(=O)NCCSC(=O)C(O)C(=O)O` (some centres unmarked) [tartronyl-CoA] the vmax [1] was 0.6 ± 0.01 U mg^−1, the Km [2] was 180 ± 40 µM and the vmax [2] was 0.23±0.01 U mg^−1.
`CC(C)(COP(=O)(O)OP(=O)(O)OC[C@H]1O[C@@H](n2cnc3c(N)ncnc32)[C@H](O)[C@@H]1OP(=O)(O)O)[C@@H](O)C(=O)NCCC(=O)NCCSC(=O)CO` [glycolyl-CoA] showed a vmax [3] of 1.5 ± 0.09 U mg^−1.
`O=C(O)CO` [glycolate] was tested, and the vmax [4] was 1.3 ± 0.07 U mg^−1.
